Here are results for one compound from patent US5217976A, “1,6-naphthyridone derivatives having angiotensin II antagonist activity” (Imperial Chemical Industries PLC, priority 1991, dated 1993).

Each structure is given as a SMILES string.

Test [1] has as its target T1, angiotensin II (AII) receptors, cell surface membrane fraction of guinea pig adrenal gland (Cavia porcellus, UniProt Q9WV26).
T1 construct: from tissue; host or cells: guinea pig adrenal gland, cell surface membrane fraction
T1 sequence (Q9WV26 1-359): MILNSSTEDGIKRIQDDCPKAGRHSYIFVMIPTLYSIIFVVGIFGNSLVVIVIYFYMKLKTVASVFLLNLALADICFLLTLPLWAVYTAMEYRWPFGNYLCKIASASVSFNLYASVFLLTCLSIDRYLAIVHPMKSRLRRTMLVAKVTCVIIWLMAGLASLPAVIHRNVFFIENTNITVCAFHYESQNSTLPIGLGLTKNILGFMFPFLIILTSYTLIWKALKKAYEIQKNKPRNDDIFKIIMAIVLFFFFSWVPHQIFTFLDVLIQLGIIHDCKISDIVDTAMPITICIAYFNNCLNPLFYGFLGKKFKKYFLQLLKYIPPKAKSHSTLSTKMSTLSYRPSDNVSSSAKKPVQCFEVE
The experiment in a line: Test A: displacement of radiolabelled AII binding to adrenal membrane fraction (in vitro). The settings on record: guinea pig adrenal membranes, read-out: IC50 (concentration for 50% displacement of radiolabelled AII binding). On the procedure:
Test A: This in vitro procedure involves the incubation of the test compound initially at a concentration of 100 micromolar (or less) in a buffered mixture containing fixed concentrations of radiolabelled AII and a cell surface membrane fraction prepared from a suitable angiotensin target tissue. In this test, the source of cell surface membranes is the guinea pig adrenal gland which is well known to responsd to AII. Interaction of the radiolabelled AII with its receptors (assessed as radiolabel bound to the particulate membrane fraction following removal of unbound radiolabel by a rapid filtration procedure such as is standard in such studies) is antagonized by compounds which also bind to the membrane receptor sites and the degree of antagonism (observed in the test as displacement of membrane-bound radioactivity) is determined readily by comparing the receptor-bound radioactivity in the presence of the test compound at the specified test concentration with a control value determined in the absence of the test compound. Using this procedure compounds showing at least 50% displacement of radiolabelled AII binding at a concentration of 10^-4 M are retested at lower concentrations to determine their potency. […]

The test system of test [2] is angiotensin II-induced pressor responses. The experiment in a line: Test C: antagonism of angiotensin II-induced pressor responses in anaesthetised or conscious rats (in vivo). The settings on record: iv, rat, i.v. administration. On the procedure:
Test C: This in vivo test involves using terminally-anaesthetised or conscious rats in which an arterial catheter has been implanted under anaesthesia for the measurement of changes in blood pressure. The AII antagonistic effects of the test compound following oral or parenteral administration, are assessed against angiotensin II-induced pressor responses. To ensure that the effect is specific, the effect of the test compound on vasopressin-induced pressor responses may also be determined in the same preparation.

Take `Cc1cc2c(ccc(=O)n2Cc2ccc(-c3ccccc3-c3nnn[nH]3)cc2)c(C)n1.Cl` [Example I, 5,7-dimethyl-1[(2'-(1H-tetrazol-5-yl)biphenyl-4-yl)methyl]-1,6-naphthyridin-2(1H)-one hydrochloride]: the IC50 in test [1] was 8.84 nM. For the same compound, the 50% effect level in test [2] (ED50) was put at a dose of 0.048 mg/kg.
